The results in this text go back to patent US10278942B2 (PELOTON THERAPEUTICS, INC., priority 2015, dated 2019).

The structures appear in SMILES notation. A value given as a limit tells only on which side of the number the result lay.

T1 sequence (Q99814 240-350 limits assumed): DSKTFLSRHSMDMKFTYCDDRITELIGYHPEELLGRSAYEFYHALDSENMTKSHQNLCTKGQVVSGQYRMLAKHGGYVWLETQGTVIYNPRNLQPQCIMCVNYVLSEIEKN

The subject of the first test is 786-O-Hif-Luc cells. As to the kind of experiment: Luciferase Assay (HIF responsive elements reporter). Conditions: read-out: Mean Luciferase EC50 (nM).
Description: A pool of infected cells were then selected against 2 μg/mL of puromycin (P8833, Sigma) for 10 days followed by limited dilution to select single clones. […] Each concentration was tested in triplicate. After about 24 hours, luciferase activity was determined using ONE-Glo Luciferase Assay Reagent (E6110, Promega) following the manufacturer's recommended procedure. EC50 were calculated using Dotmatics software.
Usually EC50 stands for the concentration needed to bring the measured effect to its halfway point. With `CCS(=O)(=O)c1ccc(Oc2cc(F)cc(C#N)c2)c2c1[C@H](O)C(F)(F)C2` [Compound 206], the EC50 lay in the range of 50 to 249 nM. Consider `N#Cc1cc(F)cc(Oc2ccc(S(=O)(=O)C(F)(F)F)c3c2CC(F)(F)[C@H]3N)c1` [Compound 290], for which the EC50 lay in the range of 50 to 249 nM.

In the case of `N#Cc1cc(F)cc(Oc2ccc(S(=O)(=O)C(F)(F)F)c3c2CC[C@H]3O)c1` [Compound 57], the EC50 was 50 to 249 nM. Consider `CS(=O)(=O)c1ccc(Oc2cc(F)cc(C#N)c2)c2c1C(O)C(F)(F)C2` (centres unmarked) [Compound 223], for which the EC50 lay in the range of 50 to 249 nM. On the same count and under the same terms, then `CS(=O)(=O)c1ccc(Oc2cc(F)cc(C#N)c2)c2c1[C@H](O)[C@@H](F)C2` [Compound 271], with 250 to 1000 nM; and `N#Cc1cc(F)cc(Oc2ccc(S(N)(=O)=O)c3c2[C@@H](F)C(F)(F)[C@H]3O)c1` [Compound 338], with < 50 nM. As for `N#Cc1cc(Cl)cc(Oc2ccc(S(=O)(=O)CF)c3c2CC(F)(F)[C@H]3O)c1` [Compound 167], the EC50 is < 50 nM. On the same count and under the same terms, with `N#Cc1cccc(Oc2ccc(S(=O)(=O)C(F)F)c3c2CC[C@H]3O)c1` [Compound 156] the figure was 250 to 1000 nM; with `[2H]C([2H])([2H])S(=O)(=O)c1ccc(Oc2cc(F)cc(C#N)c2)c2c1[C@]([2H])(O)C(F)(F)C2` [Compound 229], < 50 nM; with `CNS(=O)(=O)c1ccc(Oc2cc(F)cc(F)c2)c2c1[C@H](O)C(F)(F)C2` [Compound 251], 50 to 249 nM. On the same count and under the same terms, then `CS(=O)(=O)c1ccc(Oc2cc(F)cc(C#N)c2)c2c1[C@@H](O)C(F)(F)C2` [Compound 226], with > 1000 nM. Still for that read-out and setting: then `N#Cc1cncc(Oc2ccc(S(=O)(=O)C(F)(F)F)c3c2CC(F)(F)[C@H]3O)c1` [Compound 235], with < 50 nM; and `CS(=O)(=O)c1ccc(Oc2cc(F)cc(C#N)c2)c2c1[C@H](O)C(F)(F)C2` [Compound 163, (S)-3-((2,2-Difluoro-1-hydroxy-7-(methylsulfonyl)-2,3-dihydro-1H-inden-4-yl)oxy)-5-fluorobenzonitrile], with < 50 nM; and `NS(=O)(=O)c1ccc(Oc2cc(F)cc(F)c2)c2c1[C@H](O)C(F)(F)C2` [Compound 256], with < 50 nM.

The test is the same for the next values; noted with them: read-out: Mean Luciferase EC50 (nM), 786-O-Hif-Luc cells.
Turning to `N#Cc1cc(F)cc(Oc2ccc(S(=O)(=O)C(F)F)c3c2CC(F)(F)C3O)c1` (centres unmarked) [Compound 11], the EC50 is < 50 nM. Regarding `N#Cc1cc(F)cc(Oc2ccc(S(N)(=O)=O)c3c2[C@@H](F)[C@@H](F)[C@H]3O)c1` [Compound 336], the EC50 was 50 to 249 nM.

With `CS(=O)(=O)c1ccc(Oc2cc(F)cc(C#N)c2)c2c1[C@H](O)CC2` [Compound 287], the EC50 was 250 to 1000 nM. Still for that read-out and setting: then `N[C@@H]1c2c(ccc(Oc3cc(F)cc(Br)c3)c2Br)S(=O)(=O)C1(F)F` [Compound 462], with 250 to 1000 nM. Same read-out and setting: with `N#Cc1cc(F)cc(Oc2ccc(S(=O)(=O)C(F)F)c3c2CC(F)(F)[C@H]3O)c1` [Compound 15, 3-[(1S)-7-(difluoromethylsulfonyl)-2,2-difluoro-1-hydroxy-indan-4-yl]oxy-5-fluoro-benzonitrile] the figure was < 50 nM. On the same count and under the same terms, with `O=S1(=O)c2ccc(Oc3cc(F)cc(F)c3)c(C(F)F)c2C(O)C1F` (centres unmarked) [Compound 369] the figure was 50 to 249 nM; with `N#Cc1cc(F)cc(Oc2ccc(S(=O)(=O)CCl)c3c2CC(F)(F)[C@H]3O)c1` [Compound 215], < 50 nM. For the compound `Cc1c(S(C)(=O)=O)ccc(Oc2cc(F)cc(Cl)c2)c1C#N` [Compound 50], the half-maximal effective concentration (EC50) was > 1000 nM.

For `CC(C)Oc1ccc2c(c1C#N)C(C)(O)C(F)(F)S2(=O)=O` (centres unmarked) [Compound 456], the concentration giving a half-maximal response (EC50) was > 1000 nM. Turning to `CC1(C#N)CC(Oc2ccc(S(C)(=O)=O)c3c2[C@@H](F)C(F)(F)[C@H]3O)C1` (some centres unmarked) [Compound 766], the EC50 was 250 to 1000 nM. Same read-out and setting: then `N#Cc1cc(F)cc(Oc2ccc(S(=O)(=O)C(F)F)c3c2CC(F)(F)[C@@H]3O)c1` [Compound 237], with 50 to 249 nM; and `N#Cc1cc(F)cc(Oc2ccc(S(=O)(=O)C(F)F)c(CO)c2Cl)c1` [Compound 42], with 250 to 1000 nM. Same read-out and setting: with `O=S(=O)(CF)c1ccc(Oc2cc(F)cc(Cl)c2)c2c1[C@H](O)CC2` [Compound 61] the figure was 50 to 249 nM; with `CS(=O)(=O)c1ccc(Oc2cc(F)cc(Cl)c2)c(C(F)F)c1CO` [Compound 54], 250 to 1000 nM; with `O=S(=O)(c1ccc(Oc2ccc(F)c3[nH]ncc23)c2c1C(O)C(F)(F)C2)C(F)(F)F` (centres unmarked) [Compound 241], 50 to 249 nM. As to `O=[N+]([O-])c1ccc(Oc2cc(F)cc(Cl)c2)c2c1C(O)CC2` (centres unmarked) [Compound 255], the EC50 is > 1000 nM.

The next test addresses T1, HIF-2α HIS TAG-PASB Domain (Homo sapiens, UniProt Q99814).
T1 construct: 100 nM HIF-2α HIS TAG-PASB Domain
As to the kind of experiment: HIF-2α Scintillation Proximity Assay (SPA). It is filed as binding. The conditions noted are these: Scintillation Proximity Assay IC50 (nM). In short, it runs like this: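 IC50 values rest on percent inhibition, where the sample signal is scaled between high and low controls. Wells contain about 100 μL: compound dispensed as 2 μL of DMSO solution, 88 μL protein-probe mix and 10 μL of beads.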
The IC50 is the midpoint of a concentration-inhibition curve. In turn, `O=S(=O)(c1ccc(Oc2cc(F)cc(Cl)c2)c(Cl)c1)C(F)(F)F` [Compound 128] returned an IC50 of 50 to 249 nM. As for `N#Cc1c(Oc2cc(F)cc(Cl)c2)ccc2c1C(O)C(F)(F)S2(=O)=O` (centres unmarked) [Compound 356], the half-inhibitory concentration (IC50) was < 50 nM.

The same test, now with this note: read-out: Scintillation Proximity Assay IC50.
Turning to `CC1(C)CC[C@H](O)[C@@H](c2ccc(S(=O)(=O)C(F)(F)F)c3c2CC(F)(F)[C@H]3O)C1` [Compound 544], the IC50 was > 1000 nM.

For `CC(=O)N1CCC(Oc2ccc(S(=O)(=O)C(F)(F)F)c3c2CC(F)(F)C3O)C1` (centres unmarked) [Compound 629], the IC50 is > 1000 nM. On to `CC(Oc1ccc(S(=O)(=O)C(F)(F)F)c2c1CC(F)(F)C2O)C(=O)N(C)C` (centres unmarked) [Compound 647], for which the IC50 is > 1000 nM. On the same count and under the same terms, then `O=S(=O)(c1ccc(O[C@@H]2CCCc3cn[nH]c32)c2c1[C@H](O)C(F)(F)C2)C(F)(F)F` [Compound 729], with > 1000 nM; and `CC1(O)c2c(S(=O)(=O)C(F)F)ccc(Oc3cc(F)cc(C#N)c3)c2CC1(F)F` (centres unmarked) [Compound 13], with > 1000 nM. Regarding `O[C@H]1c2c(OCC(F)F)ccc(C(F)(F)F)c2[C@H](F)C1(F)F` [Compound 690], the IC50 was > 1000 nM. Still for that read-out and setting: with `CC(C)(C)OC(=O)N[C@H]1C[C@@H](O)c2c(S(=O)(=O)C(F)(F)F)ccc(Oc3cc(F)cc(C#N)c3)c21` [Compound 278] the figure was > 1000 nM; with `CS(=O)(=NC#N)c1ccc(Oc2cc(F)cc(F)c2)c2c1C(O)CC2` (centres unmarked) [Compound 189], > 1000 nM.

As for `CS(=O)(=O)c1ccc(Oc2cc(F)cc(C#N)c2)c2c1C(O)CCC2` (centres unmarked) [Compound 95], the 50% inhibitory concentration (IC50) was > 1000 nM. Regarding `O=S(=O)(c1ccc(CC(O)CO)c2c1C(O)C(F)(F)C2)C(F)(F)F` (centres unmarked) [Compound 521, 3-(2,2-difluoro-1-hydroxy-7-((trifluoromethyl)sulfonyl)-2,3-dihydro-1H-inden-4-yl)propane-1,2-diol], the IC50 is > 1000 nM.

As for `NCCOc1ccc(S(=O)(=O)C(F)(F)F)c2c1CC(F)(F)C2O` (centres unmarked) [Compound 635], the IC50 was > 1000 nM. On the same count and under the same terms, then `N#Cc1cc(F)cc(Oc2ccc3c(c2Br)C(=O)C(F)(F)S3(=O)=O)c1` [Compound 393], with > 1000 nM. Same read-out and setting: with `O=S(=O)(c1ccc(OCCCO)c2c1C(O)CC2)C(F)(F)F` (centres unmarked) [Compound 611] the figure was > 1000 nM; with `N#CN=S(=O)(c1ccc(Oc2cc(F)cc(C#N)c2)c2c1[C@H](O)[C@H](F)C2)C(F)F` (some centres unmarked) [Compound 297], > 1000 nM; with `O=S(=O)(c1ccc(Oc2cc(F)cc(CO)c2)c(Br)c1)C(F)(F)F` [Compound 177], > 1000 nM. On the same count and under the same terms, with `N#Cc1cc(F)cc(Oc2ccc(S(=O)(=O)C3CCC3)c3c2CCC3O)c1` (centres unmarked) [Compound 208] the figure was > 1000 nM; with `O=S(=O)(c1ccc(NCc2ccco2)c2c1[C@H](O)C(F)(F)C2)C(F)F` [Compound 529], > 1000 nM; with `O=S(=O)(c1ccc(-c2ccc3cn[nH]c3c2)c2c1[C@H](O)C(F)(F)C2)C(F)(F)F` [Compound 568], > 1000 nM. As for `CC(C)(C)OC(=O)NCc1c(S(=O)(=O)C(F)F)ccc(Oc2cc(F)cc(Cl)c2)c1Br` [Compound 83], the IC50 was > 1000 nM.

Turning to `O=S(=O)(c1ccc(-c2ccccc2O)c2c1[C@H](O)C(F)(F)C2)C(F)(F)F` [Compound 564], the concentration for half-maximal inhibition (IC50) is > 1000 nM. The same measure, in the same setting: with `NC(=O)C1CCc2c(OCC(F)F)ccc(C(=O)O)c21` (centres unmarked) [Compound 693] the figure was > 1000 nM; with `O=S(=O)(c1ccc(OC2CCCNC2)c2c1[C@H](O)C(F)(F)C2)C(F)(F)F` (some centres unmarked) [Compound 797], > 1000 nM; with `O[C@H]1c2c(C(F)(F)F)ncc(O[C@H]3C[C@H](F)C3)c2C[C@H]1F` [Compound 478], < 50 nM. On the same count and under the same terms, with `CS(=O)(=O)c1ccc(Oc2cncc(Cl)c2)c2c1[C@H](O)C(F)(F)[C@H]2F` [Compound 332] the figure was > 1000 nM; with `N#Cc1cc(S(=N)(=O)C(F)(F)F)ccc1Oc1cc(F)cc(Cl)c1` (centres unmarked) [Compound 72], 250 to 1000 nM.

For the compound `N#Cc1cc(F)cc(Oc2ccc3c(c2CF)C(O)C(F)(F)S3(=O)=O)c1` (centres unmarked) [Compound 388], the IC50 was 50 to 249 nM. On the same count and under the same terms, then `N#Cc1cc(F)cc(Oc2ccc3c(c2C(F)F)C(O)(C(F)(F)F)C(F)(F)S3(=O)=O)c1` (centres unmarked) [Compound 445], with > 1000 nM. Regarding `CS(=O)(=O)c1ccc(N2CCC[C@H](O)C2)c2c1[C@H](O)C(F)(F)[C@@H]2F` [Compound 484, (S)-1-((1S,3R)-2,2,3-trifluoro-1-hydroxy-7-(methylsulfonyl)-2,3-dihydro-1H-inden-4-yl)piperidin-3-ol], the IC50 is > 1000 nM. On the same count and under the same terms, with `O=S(=O)(c1ccc(OC2CNC2)c2c1[C@H](O)C(F)(F)C2)C(F)(F)F` [Compound 792] the figure was > 1000 nM; with `N#Cc1cc(F)cc(Oc2ccc3c(c2C(F)F)C(=N)C(F)S3(=O)=O)c1` (centres unmarked) [Compound 373], > 1000 nM; with `CS(=O)(=O)c1ccc(O[C@H]2CC[C@@H](C#N)CC2)c2c1[C@H](O)C(F)(F)[C@@H]2F` [Compound 758], > 1000 nM. Take `N#Cc1cc(F)cc(Oc2ccc3c(c2Br)[C@@H](O)C(F)(F)S3(=O)=O)c1` [Compound 347]: the half-inhibitory concentration (IC50) was < 50 nM. On the same count and under the same terms, then `O=S(=O)(c1ccc(OC2CCNC2)c2c1C(O)C(F)(F)C2)C(F)(F)F` (centres unmarked) [Compound 643], with > 1000 nM.
